Assay results: patent US5691348A, “Pyridyl imidazole derivatives and processes for the preparation thereof” (Daewoo Electronics Co., Ltd., priority 1994, dated 1997)

Assays:
unanesthetized dogs = assay: Blood pressure variation with time in unanesthetized dogs; type: in vivo, dog; details: 1.0 mg, oral
Procedure: A number of dog was fed freely in a feeding room and those weighing 7 to 12 kg in good health were selected regardless of their gender.
The test dog was anesthetized with 30 mg/kg of pentobarbital sodium by intravenous injection and the left femoral artery and femoral vein were separated carefully. Silicone catheter, specially prepared and filled with saline treated with heparin (1,000 IU/ml), was cannulated into the blood vessels. After the surgery, the dog was constrained to measure the blood pressure continuously with Gould 2000 physiograph adapted to a Grass P23XL pressure transducer; and the heart rate was monitored with ECG/Biotacho amplifier. The dog was tested at least 2 days after the surgery.
10 mg/kg of furosemide was injected intramuscularly 18 hours (in case of intravenous injection, 2 hours) before the beginning of the test (administration of the test compound) to improve the activity of renin in blood plasma. After the injection of furosemide, neither food nor water was provided. […] The blood pressure and heart rate were measured up to 8 hours after the administration of each test compound.

renal hypertensive rat = assay: Blood pressure lowering effect in renal hypertension; type: in vivo, Sprague-Dawley rat; details: Amount 3 mg; intravenous or oral (not specified)
Excerpt: To induce renal hypertension, left renal artery of 4 week-old male Sprague-Dawley rat (from The Korea Research Institute of Chemical Technology) was ligated. The rat was anesthetized with ether and the surgical region on the left abdomen of the rat was shaved, disinfected, and then incised about 1 cm vertically. The renal artery near abdominal aorta was isolated carefully from surrounding tissues and veins, and then ligated completely with a suture (4/0 sterile surgical silk). The muscular strata and skin of the surgical area were sutured with a suture (4/0 sterile surgical silk). The surgical region was disinfected to prevent infection and thereafter, 200 to 250 mg/kg/day of cephazolin sodium was injected intramuscularly for 2 days. 6 to 8 days after the ligation, rats showing systolic pressure of more than 180 mmHg were selected for renal hypertension test. The blood pressure was determined by a tail-cuff method from the tail under unanesthetized condition (Gerold, M. et al., Arzneimittel-Forsch., 18, 1285(1968)).
Each of the compounds to be tested was administered intravenously or orally into the renal hypertensive rat. The blood pressure of the rat was determined by direct method (Chiu, A. T. et al., J. Pharmacol. Exp. Ther., 250, 867(1989)) using a catheter. The rat was anesthetized with ketamine hydrochloride (125 mg/kg, i.p.) and a catheter was filled with saline and inserted into a carotid artery and […]. The surgical area was sutured with a metal clip. The rat was relaxed at least 3 hours and the catheter in the carotid artery was adapted to an isotec pressure transducer to determine the blood pressure and heart rate with a physiograph (Linearcorder WR3310). After the blood pressure was stabilized, the test compound was administered intravenously or orally. For intravenous administration, the administered volume and washing volume were 1.0 ml/kg and 0.2 ml, respectively. The blood pressure and heart rate were measured in regular intervals up to 24 hours after the administration of the test compound and compared with those measured after the administration of the control compound Losartan.
The test compound was dissolved in 0.05N KOH for intravenous administration and suspended in Tween 80 for oral administration.

angiotensin II receptor = assay: Angiotensin II receptor binding assay ([3H] angiotensin II); set-up: species or system rat (Sprague-Dawley adrenal cortex/medulla; Wistar liver); details: 25° C., 60 minutes, test concentration not given
Procedure: 1. Angiotensin II receptor binding assay
In accordance with the procedure disclosed in Chiu, A. T. et al., Eur. J. Pharm., 157, 13(1981), a ligand marked with a radioisotope was reacted with an angiotensin II receptor and the reactant was filtered with a glass fiber to remove unreacted ligand. After washing the filter, the amount of the remaining isotope was measured to determine the binding activity of the ligand, as described below in detail.
Sprague-Dawley rats and Wistar rats of 250 to 350 g (from The Korea Research Institute of Chemical Technology) were tested and the test procedures were carried out at 4° C., unless otherwise specified. Adrenal gland was separated from the Sprague-Dawley rats (liver, in the case of Wistar rats) into cortex and medulla. The separated adrenal cortex and medulla were washed with a sucrose buffer solution (0.2M sucrose, 1 mM EDTA, 10 mM Tris, Ph 7.2) and homogenized in the same buffer solution by using a Teflon pestle and a Brinkmann homogenizer. The homogenates were centrifuged at 3,000× g for 10 minutes to remove precipitates and further centrifuged at 12,000× g for 13 minutes. The final supernatants were centrifuged at 102,000× g for 1 hour to obtain precipitates, which were washed with a Tris buffer solution (50 mM Tris, 5 mM MgCl2, pH 7.2) and recentrifuged at 102,000× g for 1 hour. The resulting precipitates were immediately processed at the following step or stored at -70° C.
The precipitates were suspended in a Tris buffer solution. The amount of protein was determined by using a Bio-Rad DC protein analyzing kit and the protein concentration was adjusted to the amounts of: 0.2 to 0.3 mg/ml (Sprague-Dawley rat: adrenal cortex), 1.5 to 2.0 mg/ml (Sprague-Dawley rat: adrenal medulla), and 1.5 to 2.0 mg/ml (Wistar rat: liver). To the suspension, bovine serum albumin(BSA) was added to a concentration of 0.25 wt % and the resultant was immediately processed at the following step or stored at -70° C.
50 μl (based on ligand) of [^3 H] angiotensin II (NEN, NET-446) and 10 μl of each of the test compounds with various concentrations were added to the buffer solution (50 mM Tris (pH 7.2), 5 mM MgCl2, 0.25% BSA) to adjust the final volume to be 0.5 ml. 100 μl of the receptor suspension was added thereto and the resulting solution was reacted for 60 minutes while stirring in a water bath at 25° C. 3 ml of cold buffer solution for analysis was added to cease the reaction. The isotope which was bound to the receptor was isolated from the resultant by using Brandel Cell Harvester System with Whatman glass fiber GF/C. After washing the filter, the radioactivity of the filter was determined by using a liquid scintillation counter. Binding inhibition(%) of the test compound was calculated as follows:
Binding Inhibition(%)=[{(T-B)-(S-B)}/(T-B)]×100
wherein T is the radioactivity (cpm) of the reaction product untreated with the test compound, S is the radioactivity (cpm) of the reaction product treated with the test compound, and B is the radioactivity (cpm) of blank test.

CCCCc1nc2cc(-c3cccc[n+]3[O-])c(CO)nc2n1Cc1ccc(-c2ccccc2-c2nn[nH]n2)cc1 [Example 1, 2-Butyl-5-hydroxymethyl-6-(1-oxy-pyridin-2-yl)-3-[2'-(1H-tetrazol-5-yl)-biphenyl-4-ylmethyl]-3H-imidazo[4,5-b]pyridine]
Maximum Blood Pressure Lowering Effect (unanesthetized dogs; 0.5 hr): -17.5% | Maximum Blood Pressure Lowering Effect (unanesthetized dogs; 1 hr): -21.4% | Maximum Blood Pressure Lowering Effect (unanesthetized dogs; 2 hr): -23.6% | Maximum Blood Pressure Lowering Effect (unanesthetized dogs; 4 hr): -24.8% | Maximum Blood Pressure Lowering Effect (unanesthetized dogs; 6 hr): -21.7% | Maximum Blood Pressure Lowering Effect (unanesthetized dogs; 8 hr): -13.2% | Maximum Blood Pressure Lowering Effect (renal hypertensive rat): -60% | Binding Inhibition (angiotensin II receptor): 85.4%
